Laboratory results published in US5856303A, “Peptide, a bronchus-expanding agent, and a blood-flow-improving agent” (Itoham Foods, Inc., priority 1995, dated 1999).
Ends that are not written are not given here.

Experiments:
bronchial smooth muscle = assay: Bronchus-expanding action: relaxation of carbachol-contracted guinea pig tracheal chain in organ bath; format: cell-based, guinea pigs; details: 0.1 μmol/l carbachol-contracted trachea
Text: Purified peptides 1 to 15 obtained in Examples 1 to 15 were examined for their bronchus-expanding action in the following manner and compared with that of VIP and PACAP.
Male guinea pigs each weighing 450 to 500 g were cut at the jugular veins to open the chests, and immediately the tracheae were immediately removed. Their tracheae were immediately placed in a Krebs solution and cut into loops and then formed into a chain by linking the cartilage parts with one another via a steel string. Then, the cartilage parts in the opposite side to the smooth muscular parts were cut such that the smooth muscular parts were attached to one another. The resulting sample was placed in an about 10-ml isothermic organ bath and perpendicularly suspended. The lower part was fixed and the upper part was connected to a grass force transducer with a load of 1.4 g. A gas of 94% oxygen and 6% carbon dioxide was sufficiently blown into this sample while a Krebs solution containing 0.1μ mol/l carbachol was dropped to it at a rate of 0.33 ml/min. to determine relaxation action. Because the relaxation reaction occurs depending on the content of a test sample in this drop solution, this can be used to compare the relaxation action of VIP and PACAP and that of the peptides of the invention on the bronchial smooth muscle.
A solution of each of […], PACAP and the peptides of the invention was prepared in a concentration as high as 100-fold than the final concentration so that its concentration in the organ bath could be adjusted. 30 minutes after the carbachol-containing Krebs solution was dropped, 100 μl of the sample solution was dropped.
It was assumed that the degree of contraction of the smooth muscle is 0 in the absence of carbachol and the degree is 100 in the presence of carbachol. Minimum contraction degree A (i.e. maximum relaxation value) in the presence of the sample was determined, and maximum relaxation degree B was calculated as follows:
Maximum relaxation degree B (%)=100-A
The time required to reach half of the maximum relaxation value (referred to hereinafter as "half-time T") after the addition of the sample was determined.
A change in the relaxation degree of the bronchial smooth muscle with time was determined using each peptide at 3 dosages of 0.3 μM, 1 μM, and 3 μM respectively. The results are shown in the drawings: PACAP in FIG. 1; peptide 5 obtained in Example 5, in FIG. 2; VIP in FIG. 3; and peptide 11 obtained in Example 11, in FIG. 4. The maximum relaxation degree B at a dosage of 3 μM is 75% for peptide 5 and 80% for peptide 11, and half-time T is 360 minutes or more in both the cases.

Wistar male rats = assay: Blood-flow increasing action in anesthetized rats (femoral artery blood flow, carotid blood pressure); format: in vivo; details: 100 pmol/kg intraarterially, right femoral artery
Protocol: Purified peptides 1 to 15 obtained in Examples 1 to 15 were examined for their blood-flow increasing action and compared with those of VIP and PACAP. Wistar male rats each weighing 220 to 250 g were anesthetized by intraperitoneal administration of pentobarbital (25 mg/kg) and fixed on their back. An arterial canula was inserted into the carotid and then connected to a blood-pressure transducer (DX-300, Nippon Koden, Japan) via a doom kit (SCK-512, Nippon Koden) filled with heparin-containing physiological saline (10 U/ml) to measure blood pressure with a strain blood-pressure amplifier (AP-601G, Nippon Koden). Further, a blood-flow measurement probe (FR-030T, Nippon Koden) was attached to the right femoral artery and then connected to an electromagnetic blood-flow meter (MFV-3200, Nippon Koden) to measure blood flow. The dosage of each peptide intraarterially administrated was 100 pmol/kg.

| Substance | Half-time T (time required to reach half of the maximum relaxation value) (bronchial smooth muscle; 0.3 μM) [min] | Maximum relaxation degree B (bronchial smooth muscle; 0.3 μM) [%] | Half-time T (time required to reach half of the maximum relaxation value) (bronchial smooth muscle; 1 μM) [min] | Maximum relaxation degree B (bronchial smooth muscle; 1 μM) [%] | Half-time T (time required to reach half of the maximum relaxation value) (bronchial smooth muscle; 3 μM) [min] | Maximum relaxation degree B (bronchial smooth muscle; 3 μM) [%] | Blood Flow (increase in blood flow) (Wistar male rats) [mL/min] |
| --- | --- | --- | --- | --- | --- | --- | --- |
| pituitary adenylate cyclase activating polypeptide (HSDGIFTDSYSRYRKQMAVKKYLAAVLGKRYKQRVKNK; ends and bridges not checked; UniProt P16613 132-169, looked up) [PACAP, structurally determined peptide consisting of 38 amino acid residues, isolated from sheep hypothalamus] | 60 | 40 | 60 | 90 | 100 | 90 | 16.04 ± 5.92 |
| vasoactive intestinal peptide [VIP] | 130 | 45 | 150 | 80 | 240 | 85 | 10.18 ± 3.38 |
